Measurements taken from article PMC6044451 (Journal of medicinal chemistry, 2018).

Test system: HIV-1LAI
Assay: Antiviral activity in MT-2 human T-lymphoid cells exposed to HIV-1LAI
Format: cell-based

Row | Compound | IC50 (Human immunodeficiency virus 1, MT2, in Homo sapiens, read-out: antiviral IC50) [nM] | improvement in antiviral activity compared to inhibitor 4b (MT-2 cells exposed to HIV-1LAI, versus 4b) [fold]
1 | CC(C)(C)NC(=O)[C@@H]1C[C@@H]2CCCC[C@@H]2CN1C[C@@H](O)[C@H](Cc1ccccc1)NC(=O)[C@H](CC(N)=O)NC(=O)c1ccc2ccccc2n1 [SQV, saquinavir] | 21 | 
2 | COc1ccc(S(=O)(=O)N(CC(C)C)C[C@@H](O)[C@H](Cc2ccccc2)NC(=O)O[C@H]2C[C@H]3CO[C@H]4OCC[C@@H]2[C@@H]34)cc1 [Inhibitor 4c, (2aR,2a^1R,4S,4aR,7aR)-Octahydro-2H-1,7-dioxacyclopenta[cd]inden-4-yl ((2S,3R)-3-hydroxy-4-((N-isobutyl-4-methoxyphenyl)sulfonamido)-1-phenylbutan-2-yl)carbamate] |  | 4
